Active and inactive are the calls of the source.
Experiments:
[1] = Luminescence Cell-Based Dose Retest to Confirm Inhibitors of Cancer Stem Cells. [Related pubchem assays (depositor defined):AID2717, AID2721]; format: functional, Homo sapiens; conditions: Homo sapiens
[2] = cytotoxicity in HMLE control line with eGFP shRNA, dose response, counter-screen for HMLE_sh_ECad selective toxicity project, cell-based, HMLE_sh_eGFP, luminescence (AID 463074); format: functional, Homo sapiens;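 also: HMLE human mammary epithelial cells expressing control shRNA against eGFP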
Cysteine protease ATG4B = target: T1, Cysteine protease ATG4B (Homo sapiens, UniProt Q9Y4P1); format: functional;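 also: Fluorescence-based dose-response confirmation assay measuring inhibition of ATG4B activity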
T1 sequence (Q9Y4P1 whole entry): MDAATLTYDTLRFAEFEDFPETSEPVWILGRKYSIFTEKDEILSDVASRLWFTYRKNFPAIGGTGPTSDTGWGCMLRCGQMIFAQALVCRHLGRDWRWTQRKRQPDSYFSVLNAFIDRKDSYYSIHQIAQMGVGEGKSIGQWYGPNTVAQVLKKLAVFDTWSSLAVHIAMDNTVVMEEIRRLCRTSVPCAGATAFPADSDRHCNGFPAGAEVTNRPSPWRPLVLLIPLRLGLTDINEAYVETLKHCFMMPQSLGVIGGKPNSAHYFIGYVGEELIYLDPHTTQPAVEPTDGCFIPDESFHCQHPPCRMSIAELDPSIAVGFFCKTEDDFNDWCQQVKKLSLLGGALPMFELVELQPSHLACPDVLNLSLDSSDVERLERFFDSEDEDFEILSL

Phospholipase A2 = Phospholipase A2 (Homo sapiens, UniProt P04054); format: functional;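 also: confirmatory dose-response counterscreen on phospholipase A2, testing hits that came from an ultra-high-throughput screen for ATG4B inhibitors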
[3] = target: T2, Sentrin-specific protease 7 (Homo sapiens, UniProt Q9BQF6); experiment: SENP7 protease inhibitors, SAR follow-up, biochemical, luminescence (AID 504497); format: functional
T2 sequence (Q9BQF6 whole entry): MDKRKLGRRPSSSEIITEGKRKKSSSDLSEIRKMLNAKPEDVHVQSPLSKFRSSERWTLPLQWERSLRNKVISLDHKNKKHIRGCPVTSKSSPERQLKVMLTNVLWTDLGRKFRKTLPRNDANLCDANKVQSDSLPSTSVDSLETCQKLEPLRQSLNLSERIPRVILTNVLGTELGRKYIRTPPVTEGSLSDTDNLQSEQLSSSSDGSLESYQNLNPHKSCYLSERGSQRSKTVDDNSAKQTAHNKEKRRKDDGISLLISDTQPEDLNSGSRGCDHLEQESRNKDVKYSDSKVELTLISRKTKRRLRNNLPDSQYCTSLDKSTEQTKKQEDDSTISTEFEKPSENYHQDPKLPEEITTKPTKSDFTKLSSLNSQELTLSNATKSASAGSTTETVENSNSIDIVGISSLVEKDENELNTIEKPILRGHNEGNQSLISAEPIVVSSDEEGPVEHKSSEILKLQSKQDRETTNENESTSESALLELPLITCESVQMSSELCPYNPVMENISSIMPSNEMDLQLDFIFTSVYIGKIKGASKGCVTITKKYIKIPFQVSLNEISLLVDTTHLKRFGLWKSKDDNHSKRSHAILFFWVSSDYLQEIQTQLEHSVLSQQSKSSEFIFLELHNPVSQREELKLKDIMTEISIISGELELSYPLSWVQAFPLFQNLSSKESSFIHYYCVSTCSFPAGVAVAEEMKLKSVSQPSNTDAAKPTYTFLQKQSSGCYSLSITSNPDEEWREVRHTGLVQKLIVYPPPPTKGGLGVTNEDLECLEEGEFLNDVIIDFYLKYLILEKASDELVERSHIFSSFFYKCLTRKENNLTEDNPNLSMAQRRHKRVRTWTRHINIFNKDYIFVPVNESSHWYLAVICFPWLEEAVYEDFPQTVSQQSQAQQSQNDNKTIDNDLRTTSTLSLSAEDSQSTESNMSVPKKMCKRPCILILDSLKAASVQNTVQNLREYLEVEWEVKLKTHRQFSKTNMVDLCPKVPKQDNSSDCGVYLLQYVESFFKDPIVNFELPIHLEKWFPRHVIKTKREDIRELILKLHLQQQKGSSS

[4] = target: T3, Sentrin-specific protease 6 (Homo sapiens, UniProt Q9GZR1); experiment: SAR Analysis of small molecule inhibitors of Sentrin-specific protease 6 (SENP6) using a Luminescent assay. [Related pubchem assays (depositor defined):AID2582, AID2599]; format: functional
T3 sequence (Q9GZR1 whole entry): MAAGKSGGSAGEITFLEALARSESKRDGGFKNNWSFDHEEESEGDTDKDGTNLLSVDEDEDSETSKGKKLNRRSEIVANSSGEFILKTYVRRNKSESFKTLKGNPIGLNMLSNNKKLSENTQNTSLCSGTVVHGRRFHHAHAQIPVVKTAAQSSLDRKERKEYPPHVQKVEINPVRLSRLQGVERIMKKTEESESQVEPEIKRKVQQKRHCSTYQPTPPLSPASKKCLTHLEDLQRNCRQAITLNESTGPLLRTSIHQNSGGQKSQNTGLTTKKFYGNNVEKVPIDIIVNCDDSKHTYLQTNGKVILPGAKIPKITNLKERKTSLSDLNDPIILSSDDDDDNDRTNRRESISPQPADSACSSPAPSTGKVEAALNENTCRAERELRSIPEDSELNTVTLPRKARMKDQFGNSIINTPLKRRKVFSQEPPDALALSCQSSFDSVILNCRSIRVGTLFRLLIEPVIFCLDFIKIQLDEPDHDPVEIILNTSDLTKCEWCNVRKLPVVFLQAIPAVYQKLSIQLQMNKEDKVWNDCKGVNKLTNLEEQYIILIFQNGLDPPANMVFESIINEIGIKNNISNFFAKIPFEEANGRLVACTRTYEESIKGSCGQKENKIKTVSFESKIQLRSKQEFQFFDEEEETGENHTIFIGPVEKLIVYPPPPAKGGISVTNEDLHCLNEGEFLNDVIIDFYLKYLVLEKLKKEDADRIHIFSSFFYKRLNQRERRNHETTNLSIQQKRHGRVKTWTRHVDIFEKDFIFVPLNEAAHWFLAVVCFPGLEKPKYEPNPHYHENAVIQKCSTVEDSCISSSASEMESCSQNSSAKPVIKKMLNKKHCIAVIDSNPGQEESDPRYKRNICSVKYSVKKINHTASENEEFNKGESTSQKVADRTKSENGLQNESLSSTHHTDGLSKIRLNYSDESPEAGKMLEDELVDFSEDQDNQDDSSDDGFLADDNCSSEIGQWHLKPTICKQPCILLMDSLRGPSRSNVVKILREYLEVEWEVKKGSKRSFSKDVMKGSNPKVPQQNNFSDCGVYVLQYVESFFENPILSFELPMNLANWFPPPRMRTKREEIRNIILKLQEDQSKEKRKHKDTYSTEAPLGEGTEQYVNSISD

Caspase-3 = target: T4, Caspase-3 (Homo sapiens, UniProt P42574); experiment: SAR Analysis of small molecule inhibitors of Sentrin-specific proteases (SENPs) using a Caspase-3 Selectivity assay. [Related pubchem assays (depositor defined):AID2540, AID2599, AID434973, AID489001]; format: functional
T4 sequence (P42574 whole entry): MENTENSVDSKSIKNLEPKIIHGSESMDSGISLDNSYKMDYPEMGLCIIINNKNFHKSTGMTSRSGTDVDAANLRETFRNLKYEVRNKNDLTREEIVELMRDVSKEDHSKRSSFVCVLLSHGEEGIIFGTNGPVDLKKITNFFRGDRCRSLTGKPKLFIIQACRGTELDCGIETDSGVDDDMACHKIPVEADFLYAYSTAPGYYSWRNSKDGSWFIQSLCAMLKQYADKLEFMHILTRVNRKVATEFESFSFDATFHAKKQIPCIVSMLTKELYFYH

[5] = target: T5, Sentrin-specific protease 8 (Homo sapiens, UniProt Q96LD8); experiment: SENP8 protease inhibitors, SAR follow-up, biochemical, luminescence (AID 504501); format: functional
T5 sequence (Q96LD8 whole entry): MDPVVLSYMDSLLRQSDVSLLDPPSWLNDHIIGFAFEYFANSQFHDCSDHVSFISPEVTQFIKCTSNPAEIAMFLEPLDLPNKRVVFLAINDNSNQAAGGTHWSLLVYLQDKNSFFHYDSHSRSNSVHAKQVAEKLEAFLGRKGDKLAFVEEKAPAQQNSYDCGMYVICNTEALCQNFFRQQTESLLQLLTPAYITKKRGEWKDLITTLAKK

[6] = target: T6, Mannose-6-phosphate isomerase (Homo sapiens, UniProt P34949); experiment: PMI enzyme inhibitors, confirmation, biochemical, fluorescence intensity (AID 1535)
T6 sequence (P34949 whole entry): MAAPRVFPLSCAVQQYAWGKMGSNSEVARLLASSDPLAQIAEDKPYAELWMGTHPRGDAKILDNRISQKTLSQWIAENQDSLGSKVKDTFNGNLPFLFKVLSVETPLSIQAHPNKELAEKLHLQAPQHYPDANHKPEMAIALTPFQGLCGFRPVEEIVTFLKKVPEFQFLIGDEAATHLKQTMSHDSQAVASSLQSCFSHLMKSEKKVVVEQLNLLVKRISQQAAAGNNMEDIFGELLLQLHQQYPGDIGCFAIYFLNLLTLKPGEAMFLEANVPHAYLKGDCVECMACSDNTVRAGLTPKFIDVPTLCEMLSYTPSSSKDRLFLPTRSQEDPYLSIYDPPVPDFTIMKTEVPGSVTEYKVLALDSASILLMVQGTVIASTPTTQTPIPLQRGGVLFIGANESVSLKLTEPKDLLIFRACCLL

[7] = target: T7, Alkaline phosphatase, tissue-nonspecific isozyme (Homo sapiens, UniProt P05186); experiment: human TNAP enzyme inhibitors, SAR follow-up, biochemical, luminescent, dose response (AID 1056)
T7 sequence (P05186 whole entry): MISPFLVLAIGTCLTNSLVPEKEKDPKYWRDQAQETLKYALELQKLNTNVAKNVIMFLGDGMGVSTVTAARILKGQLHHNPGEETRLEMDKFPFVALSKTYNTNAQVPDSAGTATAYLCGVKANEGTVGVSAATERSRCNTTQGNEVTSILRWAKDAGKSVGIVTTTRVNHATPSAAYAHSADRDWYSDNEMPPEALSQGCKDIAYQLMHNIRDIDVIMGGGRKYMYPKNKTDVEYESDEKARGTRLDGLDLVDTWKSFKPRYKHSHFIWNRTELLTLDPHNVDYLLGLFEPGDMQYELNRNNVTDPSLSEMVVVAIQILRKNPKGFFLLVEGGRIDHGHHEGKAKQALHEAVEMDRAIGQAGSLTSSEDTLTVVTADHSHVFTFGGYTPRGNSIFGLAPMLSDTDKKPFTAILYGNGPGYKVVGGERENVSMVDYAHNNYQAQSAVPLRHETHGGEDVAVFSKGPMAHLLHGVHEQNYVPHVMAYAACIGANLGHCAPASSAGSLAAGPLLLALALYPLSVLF

[8] = target: T8, Phosphoethanolamine/phosphocholine phosphatase (Homo sapiens, UniProt Q8TCT1); experiment: SAR assay for compounds that inhibit PHOSPHO1. [Related pubchem assays (depositor defined):AID1545, AID1565, AID1574]
T8 sequence (Q8TCT1 whole entry): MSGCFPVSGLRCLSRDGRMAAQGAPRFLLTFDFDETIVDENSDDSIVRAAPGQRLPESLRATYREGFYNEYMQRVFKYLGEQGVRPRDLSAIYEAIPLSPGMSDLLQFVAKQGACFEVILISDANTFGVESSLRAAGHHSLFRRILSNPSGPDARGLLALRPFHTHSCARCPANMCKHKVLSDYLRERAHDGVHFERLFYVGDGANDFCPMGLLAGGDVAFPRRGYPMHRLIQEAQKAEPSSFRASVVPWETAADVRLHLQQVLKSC

Phosphomannomutase 2 = target: T9, Phosphomannomutase 2 (Homo sapiens, UniProt O15305); experiment: Counter screen SAR assay for PMM2 inhibitors via a fluorescence intensity assay. [Related pubchem assays (depositor defined):AID1545, AID1574]
T9 sequence (O15305 whole entry): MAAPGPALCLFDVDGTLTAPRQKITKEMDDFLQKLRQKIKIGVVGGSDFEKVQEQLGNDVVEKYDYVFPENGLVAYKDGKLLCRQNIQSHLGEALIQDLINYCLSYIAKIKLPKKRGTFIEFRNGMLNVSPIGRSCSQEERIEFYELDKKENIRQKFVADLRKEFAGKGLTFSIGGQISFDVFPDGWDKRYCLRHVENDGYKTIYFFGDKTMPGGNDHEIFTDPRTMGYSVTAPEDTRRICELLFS

cells [9] = format: functional, cell-based
cells [10] = format: functional, cell-based; remark: listed apart in the source
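For EC50 in this document: agonist potency from rise in intracellular calcium fluorescence.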

Chain of Phospholipase A2 (P04054 whole entry): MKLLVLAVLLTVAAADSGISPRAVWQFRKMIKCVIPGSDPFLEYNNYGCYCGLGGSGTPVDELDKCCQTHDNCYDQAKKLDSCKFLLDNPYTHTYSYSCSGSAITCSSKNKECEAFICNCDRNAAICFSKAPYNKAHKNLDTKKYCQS

With `COc1ccc(-c2cc([C@H]3[C@H]4C=CC[C@@H](C)[C@@H]4C(=O)N3Cc3ccccc3)ccc2F)cc1` the AC50 [1] was 2.76 µM (active) and the AC50 [2] was 22 µM (active).
With `Cc1onc(-c2ccccc2)c1C(=O)Nc1sc2c(c1C#N)CCC(C)C2` (configuration not stated) the AC50 [1] was 1.12 µM (active) and the AC50 [2] was 26.3 µM (active).
With `Fc1ccc(CCN=C(S)Nc2ccc(F)c(Cl)c2)cc1` the IC50 (Cysteine protease ATG4B) was 12.4 µM (active) and the IC50 (Phospholipase A2) was 8.38 µM (active).
With `Cc1cc(C)nc(SCc2ccc(C(=O)N/N=C3\CC(C)CC(C)(C)C3)cc2)n1` (configuration not stated) the IC50 (Cysteine protease ATG4B) was 22.7 µM (inactive) and the IC50 (Phospholipase A2) was 17.9 µM (active).
With `CC(C)(CC(=O)Nc1scc(-c2ccc(Br)cc2)c1C(=O)O)CC(=O)Nc1scc(-c2ccc(Br)cc2)c1C(=O)O` the IC50 [3] was > 99 µM (inactive), the IC50 [4] was > 99 µM (inactive) and the IC50 (Caspase-3) was > 99 µM (inactive). For the same compound, the IC50 [5] was > 99 µM (inactive).
For `CCOC(=O)c1ccc(-n2sc3ccccc3c2=O)cc1`, the IC50 [6] was 23.6 µM (active), the IC50 [7] was > 100 µM (inactive) and the IC50 [8] was 1.24 µM (inactive). The IC50 (Phosphomannomutase 2) was > 100 µM (inactive).
With `O=c1c2ccc(F)cc2sn1-c1ccc(Cl)c(Cl)c1` the IC50 [6] was > 50 µM (inactive), the IC50 [8] was > 100 µM (inactive) and the IC50 (Phosphomannomutase 2) was > 100 µM (inactive).
With `Fc1ccc(/C=C/c2noc(-c3ccc(C(F)(F)F)cc3F)n2)cc1` the IC50 [3] was > 99 µM (inactive), the IC50 [4] was > 99 µM (inactive) and the IC50 (Caspase-3) was > 99 µM (inactive). The IC50 [5] was > 99 µM (inactive).
In the case of `OC(COc1ccc(CNCCc2ccccc2F)cc1)CN1CCCCC1` (configuration not stated), the AC50 [1] was > 195 µM (inactive), the IC50 (cells [9]) was > 29.9 µM (inactive) and the EC50 (cells [10]) was > 29.9 µM (inactive). For the same compound, the AC50 [2] was 33.9 µM (active).
